Measured values: patent publication US9198433B2, “Substituted benzene fungicides” (E I DU PONT DE NEMOURS AND COMPANY, priority 2007, dated 2015)
Marks after values point to notes of the source that are not given here.

Key:
Assay type in all cases: in vivo
[1] = test system: Erysiphe graminis f. sp. tritici; test: Test A: wheat powdery mildew, preventive spray on wheat seedlings, disease rating; conditions: 40 ppm (*)
Description: (§1) The test compounds were first dissolved in acetone in an amount equal to 3% of the final volume and then suspended at the desired concentration (in ppm) in acetone and purified water (50/50 mix) containing 250 ppm of the surfactant Trem® 014 (polyhydric alcohol esters). The resulting test suspensions were then used in Tests A-L. Spraying a 200 ppm test suspension to the point of run-off on the test plants was the equivalent of an application rate of 500 g/ha. The test suspension was sprayed to the point of run-off on wheat seedlings. […] A dash (-) indicates no test results. All results are for 200 ppm except where followed by an “*”, which indicates 40 ppm or “**”, which indicates 50 ppm.

[2] = test system: Puccinia recondita f. sp. tritici; test: Test B: wheat leaf rust, preventive spray on wheat seedlings, disease rating; conditions: 40 ppm (*)
Description: as §1

[3] = test system: Septoria nodorum; test: Test C: wheat glume blotch, preventive spray on wheat seedlings, disease rating
Description: as §1

[4] = test system: Septoria tritici; test: Test D: wheat leaf blotch, preventive spray on wheat seedlings, disease rating; conditions: 40 ppm (*)
Description: The test compounds were first dissolved in acetone in an amount equal to 3% of the final volume and then suspended at the desired concentration (in ppm) in acetone and purified water (50/50 mix) containing 250 ppm of the surfactant Trem® 014 (polyhydric alcohol esters). The resulting test suspensions were then used in Tests A-L. Spraying a 200 ppm test suspension to the point of run-off on the test plants was the equivalent of an application rate of 500 g/ha. The test suspension was sprayed to the point of run-off on wheat seedlings. The following day the seedlings were inoculated with a spore suspension of Septoria tritici (the causal agent of wheat leaf blotch) and incubated in a saturated atmosphere at 24° C. for 48 h, and then moved to a growth chamber at 20° C. for 19 days, after which time disease ratings were made. […] A dash (-) indicates no test results. All results are for 200 ppm except where followed by an “*”, which indicates 40 ppm or “**”, which indicates 50 ppm.

[5] = test system: Botrytis cinerea; test: Test F: tomato Botrytis, preventive spray on tomato seedlings, disease rating
Description: (§2) The test compounds were first dissolved in acetone in an amount equal to 3% of the final volume and then suspended at the desired concentration (in ppm) in acetone and purified water (50/50 mix) containing 250 ppm of the surfactant Trem® 014 (polyhydric alcohol esters). The resulting test suspensions were then used in Tests A-L. Spraying a 200 ppm test suspension to the point of run-off on the test plants was the equivalent of an application rate of 500 g/ha. The test suspension was sprayed to the point of run-off on tomato seedlings. […] A dash (-) indicates no test results. All results are for 200 ppm except where followed by an “*”, which indicates 40 ppm or “**”, which indicates 50 ppm.

[6] = test system: Alternaria solani; test: Test H: tomato early blight, preventive spray on tomato seedlings, disease rating
Description: as §2

| SMILES | Percentage Disease Control, Test A [1] | Percentage Disease Control, Test B [2] | Percentage Disease Control, Test C ([3]; 40 ppm (*)) | Percentage Disease Control, Test D [4] | Percentage Disease Control, Test F ([5]; 40 ppm (*)) | Percentage Disease Control, Test H ([6]; 40 ppm (*)) | Percentage Disease Control, Test F ([5]; 200 ppm) [%] | Percentage Disease Control, Test H ([6]; 200 ppm) [%] | Percentage Disease Control, Test C ([3]; 200 ppm) [%] |
| --- | --- | --- | --- | --- | --- | --- | --- | --- | --- |
| COC(=O)NCc1cc(-c2ccn(CC(C)Oc3ccccc3)n2)ccc1Cl (racemic) [Cmpd 61] | 84* % | 100* % | 99* % | 99* % | 0* % | 0* % | – | – | – |
| COC(=O)NCc1cc(-c2ccn(-c3ccccc3C(F)(F)F)n2)ccc1Cl [Cmpd 51] | 97* % | 99* % | 98* % | 100* % | 0* % | 60* % | – | – | – |
| COC(=O)NCc1cc(-c2ccn(-c3ccccc3Cl)n2)ccc1Cl [Cmpd 52] | 100* % | 100* % | 100* % | 100* % | – | – | 99 | 92 | – |
| COC(=O)NCc1cc(-c2ccn(Cc3cc(C(F)(F)F)ccc3Cl)n2)ccc1Cl [Cmpd 53] | 98* % | 99* % | 94* % | 99* % | 0* % | 92* % | – | – | – |
| COC(=O)NCc1cc(-c2ccn(-c3ccccc3C(C)=O)n2)ccc1Cl [Cmpd 54] | 99* % | 100* % | 99* % | 99* % | 0* % | – | – | – | – |
| COC(=O)NCc1cc(-c2ccn(Cc3ccc(-c4ccccc4C#N)cc3)n2)ccc1Cl [Cmpd 55] | 88* % | 88* % | 92* % | 95* % | 0* % | 16* % | – | – | – |
| COC(=O)NCc1cc(-c2ccn(CCC(=O)c3ccc(Cl)cc3)n2)ccc1Cl [Cmpd 56] | 89* % | 97* % | 97* % | 90* % | 0* % | 92* % | – | – | – |
| COC(=O)NCc1cc(-c2ccn(Cc3ccccc3)n2)ccc1Cl [Cmpd 57] | 97* % | 100* % | 87* % | 100* % | 0* % | 96* % | – | – | – |
| COC(=O)NCc1cc(-c2ccn(CCc3ccccc3)n2)ccc1Cl [Cmpd 58] | 98* % | 100* % | 100* % | 99* % | 0* % | 89* % | – | – | – |
| COC(=O)NCc1cc(-c2ccn(CCOc3ccccc3)n2)ccc1Cl [Cmpd 59] | 98* % | 100* % | 99* % | 97* % | 0* % | 87* % | – | – | – |
| COC(=O)NCc1cc(-c2ccn(Cc3cccc(Cl)c3)n2)ccc1Cl [Cmpd 60] | 98* % | 99* % | 99* % | 99* % | 0* % | 24* % | – | – | – |
| COC(=O)NCc1cc(-c2ccn(Cc3ccccc3C(F)(F)F)n2)ccc1Cl [Cmpd 62] | 99* % | 99* % | 100* % | 100* % | 0* % | 0* % | – | – | – |
| COC(=O)NCc1cc(-c2ccn(Cc3ccc(C(F)(F)F)cc3)n2)ccc1Cl [Cmpd 63] | 97* % | 100* % | 99* % | 100* % | 0* % | 98* % | – | – | – |
| COC(=O)NNc1cc(-c2ccn(-c3cccc(C(F)(F)F)c3)n2)ccc1Cl [Cmpd 64] | 99* % | 100* % | – | 93* % | – | – | 16 | 62 | 99 |
| COC(=O)NCc1cc(-c2ccn(Cc3ccccc3C)n2)ccc1Cl [Cmpd 70] | 99* % | 99* % | 100* % | 100* % | – | 96* % | – | – | – |
| COC(=O)NCc1cc(-c2ccn(Cc3cccc(C)c3)n2)ccc1Cl [Cmpd 71] | 99* % | 100* % | 100* % | 100* % | – | 84* % | – | – | – |
| COC(=O)NCc1cc(-c2ccn(-c3ccc(OC(F)(F)F)cc3)n2)ccc1Cl [Cmpd 77] | 99* % | 100* % | 100* % | 100* % | – | 96* % | – | – | – |
| COC(=O)NCc1cc(-c2ccn(-c3ccc(C(F)(F)F)cc3)n2)ccc1Cl [Cmpd 79] | 99* % | 99* % | 100* % | 99* % | 0* % | – | – | – | – |
| COC(=O)NCc1cc(-c2ccn(-c3ccc(-c4ccccc4)cc3)n2)ccc1Cl [Cmpd 82] | 60* % | 0* % | 86* % | – | 0* % | 7* % | – | – | – |
| CCCCn1nc(-c2ccc(Cl)c(CNC(=O)OC)c2)cc1C(F)(F)F [Cmpd 102] | 98* % | 98* % | 96* % | 98* % | – | – | 0 | – | – |
| CCCn1nc(-c2ccc(Cl)c(CNC(=O)OC)c2)cc1C(F)(F)F [Cmpd 103] | 99* % | 98* % | – | 99* % | – | – | 0 | – | 87 |
